Reference: publication doi:10.1101/2025.11.27.691040v1 (biorxiv, 2025)

Biological target: T1, AtCKA1 (Arabidopsis thaliana, UniProt Q08467)
T1 sequence (Q08467 76-409): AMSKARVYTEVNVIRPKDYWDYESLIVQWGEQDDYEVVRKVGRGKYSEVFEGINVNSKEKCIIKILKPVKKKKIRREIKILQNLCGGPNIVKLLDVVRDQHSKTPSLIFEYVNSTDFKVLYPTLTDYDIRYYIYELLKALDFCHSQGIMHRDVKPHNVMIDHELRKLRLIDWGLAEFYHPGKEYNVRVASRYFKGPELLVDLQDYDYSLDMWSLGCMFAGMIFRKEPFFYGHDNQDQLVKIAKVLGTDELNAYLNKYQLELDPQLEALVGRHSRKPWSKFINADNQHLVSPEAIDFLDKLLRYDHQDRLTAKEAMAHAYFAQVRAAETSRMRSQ
Experiment: biochemical

O=P(O)(O)O[C@H]1[C@H](OP(=O)(O)O)[C@@H](OP(=O)(O)O)[C@H](OP(=O)(O)O)[C@@H](OP(=O)(O)O)[C@H]1OP(=O)(O)O [InsP6] was tested, and the Kd was 2 µM.
